# Laboratory results reported in ChEMBL document CHEMBL5137080, “Discovery of Novel 7-Hydroxy-5-oxo-4,5-dihydrothieno[3,2-b]pyridine-6-carboxamide Derivatives with Potent and Selective Antifungal Activity against Cryptococcus Species” (J Med Chem, 2022).
# Experiments:
# Cryptococcus neoformans [1] = assay: Synergistic antifungal activity against Cryptococcus neoformans clinical isolate HN15 assessed as fractional inhibitory concentration index incubated for 72 hrs in presence of P163-0892 by broth microdilution method; format: functional
# Candida tropicalis [2] = assay: Synergistic antifungal activity against Candida tropicalis ATCC20026 assessed as fractional inhibitory concentration index incubated for 48 hrs in presence of P163-0892 by broth microdilution method; format: functional
# [3] = tested on: Cryptococcus deuterogattii; assay: Antifungal activity against Cryptococcus gattii WM178 assessed as fungal growth inhibition incubated for 72 hrs in presence of P163-0892 by broth microdilution method; format: functional, Cryptococcus gattii species complex
# Cryptococcus neoformans [4] = assay: Synergistic antifungal activity against Cryptococcus neoformans clinical isolate HN20 assessed as fractional inhibitory concentration index incubated for 72 hrs in presence of P163-0892 by broth microdilution method; format: functional
# Cryptococcus gattii [5] = assay: Synergistic antifungal activity against Cryptococcus gattii WM179 assessed as fractional inhibitory concentration index incubated for 72 hrs in presence of P163-0892 by broth microdilution method; format: functional, Cryptococcus gattii species complex
# Nakaseomyces glabratus [6] = assay: Synergistic antifungal activity against Candida glabrata ATCC1182 assessed as fractional inhibitory concentration index incubated for 48 hrs in presence of P163-0892 by broth microdilution method; format: functional
# Cryptococcus neoformans [7] = assay: Antifungal activity against Cryptococcus neoformans clinical isolate SH68 assessed as fungal growth inhibition incubated for 72 hrs in presence of P163-0892 by broth microdilution method; format: functional
# Cryptococcus neoformans [8] = assay: Synergistic antifungal activity against Cryptococcus neoformans H99 assessed as fractional inhibitory concentration index incubated for 72 hrs in presence of P163-0892 by broth microdilution method; format: functional
# Candida albicans [9] = assay: Antifungal activity against Candida albicans SC5314 assessed as fungal growth inhibition incubated for 48 hrs in presence of P163-0892 by broth microdilution method; format: functional
# [Candida] auris = Synergistic antifungal activity against Candida auris CBS 12372 assessed as fractional inhibitory concentration index incubated for 48 hrs in presence of P163-0892 by broth microdilution method; format: functional, Candidozyma auris
# [10] = tested on: Cryptococcus gattii species complex; assay: Synergistic antifungal activity against Cryptococcus gattii E566 assessed as fractional inhibitory concentration index incubated for 72 hrs in presence of P163-0892 by broth microdilution method; format: functional
# Cryptococcus neoformans [11] = assay: Antifungal activity against Cryptococcus neoformans clinical isolate HN2 assessed as fungal growth inhibition incubated for 72 hrs in presence of P163-0892 by broth microdilution method; format: functional
# Cryptococcus neoformans [12] = assay: Synergistic antifungal activity against Cryptococcus neoformans clinical isolate HN1 assessed as fractional inhibitory concentration index incubated for 72 hrs in presence of P163-0892 by broth microdilution method; format: functional
# [13] = tested on: Cryptococcus deuterogattii; assay: Synergistic antifungal activity against Cryptococcus gattii WM178 assessed as fractional inhibitory concentration index incubated for 72 hrs in presence of P163-0892 by broth microdilution method; format: functional, Cryptococcus gattii species complex
# Cryptococcus gattii [14] = assay: Antifungal activity against Cryptococcus gattii WM179 assessed as fungal growth inhibition incubated for 72 hrs in presence of P163-0892 by broth microdilution method; format: functional, Cryptococcus gattii species complex
# Cryptococcus neoformans [15] = assay: Synergistic antifungal activity against Cryptococcus neoformans clinical isolate HN2 assessed as fractional inhibitory concentration index incubated for 72 hrs in presence of P163-0892 by broth microdilution method; format: functional
# Cryptococcus neoformans [16] = assay: Antifungal activity against Cryptococcus neoformans H99 infected in Wax moth larvae assessed as survival rate at 10 mg/kg measured after 9 days in presence of P163-0892 by Kaplan-Meier method; format: functional; settings: H99, 216 h, time 9 day
# Nakaseomyces glabratus [17] = assay: Antifungal activity against Candida glabrata ATCC1182 assessed as fungal growth inhibition incubated for 48 hrs in presence of P163-0892 by broth microdilution method; format: functional
# Cryptococcus neoformans [18] = assay: Antifungal activity against Cryptococcus neoformans clinical isolate HN1 assessed as fungal growth inhibition incubated for 72 hrs in presence of P163-0892 by broth microdilution method; format: functional
# Cryptococcus neoformans [19] = assay: Antifungal activity against Cryptococcus neoformans clinical isolate HN2 assessed as fungal growth inhibition incubated for 72 hrs in presence of Fluconazole by broth microdilution method; format: functional
# Candida tropicalis [20] = assay: Antifungal activity against Candida tropicalis ATCC20026 assessed as fungal growth inhibition incubated for 48 hrs in presence of Fluconazole by broth microdilution method; format: functional
# Pichia kudriavzevii = assay: Synergistic antifungal activity against Candida krusei ATCC2340 assessed as fractional inhibitory concentration index incubated for 48 hrs in presence of Fluconazole by broth microdilution method; format: functional
# Candida albicans [21] = assay: Antifungal activity against Candida albicans SC5314 assessed as fungal growth inhibition incubated for 48 hrs in presence of Fluconazole by broth microdilution method; format: functional
# Cryptococcus neoformans [22] = assay: Synergistic antifungal activity against Cryptococcus neoformans clinical isolate HN15 assessed as fractional inhibitory concentration index incubated for 72 hrs in presence of Fluconazole by broth microdilution method; format: functional
# Candida tropicalis [23] = assay: Synergistic antifungal activity against Candida tropicalis ATCC20026 assessed as fractional inhibitory concentration index incubated for 48 hrs in presence of Fluconazole by broth microdilution method; format: functional
# Cryptococcus neoformans [24] = assay: Antifungal activity against Cryptococcus neoformans H99 infected in Wax moth larvae assessed as survival rate at 10 mg/kg measured after 9 days in presence of Fluconazole by Kaplan-Meier method; format: functional; settings: H99, 216 h, time 9 day
# Cryptococcus neoformans [25] = assay: Synergistic antifungal activity against Cryptococcus neoformans clinical isolate 444 assessed as fractional inhibitory concentration index incubated for 72 hrs in presence of Fluconazole by broth microdilution method; format: functional
# Cryptococcus neoformans [26] = assay: Synergistic antifungal activity against Cryptococcus neoformans H99 assessed as fractional inhibitory concentration index incubated for 72 hrs in presence of Fluconazole by broth microdilution method; format: functional
# [27] = Volume of distribution at steady state in Sprague-Dawley rat at 2 mg/kg,iv by LC-MS/MS analysis; format: ADME, organism-based; settings: in vivo
# [28] = Cytotoxicity against human Caco-2 cells assessed as cell growth inhibition incubated for 24 hrs by CCK-8 assay; format: toxicity, cell-based
# [29] = Selectivity index, ratio of IC50 for rabbit RBC to MIC for antifungal activity against Cryptococcus neoformans; format: toxicity; settings: red blood cells, read-out: Selectivity Index
# Cryptococcus neoformans [30] = assay: Antifungal activity against Cryptococcus neoformans clinical isolate BJ3 assessed as fungal growth inhibition incubated for 72 hrs in presence of Fluconazole by broth microdilution method; format: functional
# [31] = AUC (0 to infinitive) in Sprague-Dawley rat at 2 mg/kg,iv by LC-MS/MS analysis; format: ADME, organism-based; set-up: time infinity, dose 2 mg/kg, route iv; settings: in vivo
# Cryptococcus neoformans [32] = assay: Antifungal activity against Cryptococcus neoformans clinical isolate HN1 assessed as fungal growth inhibition incubated for 72 hrs in presence of Fluconazole by broth microdilution method; format: functional
# Cryptococcus neoformans [33] = assay: Synergistic antifungal activity against Cryptococcus neoformans clinical isolate HN2 assessed as fractional inhibitory concentration index incubated for 72 hrs in presence of Fluconazole by broth microdilution method; format: functional
# [34] = Half life in Sprague-Dawley rat at 5 mg/kg,po by LC-MS/MS analysis; format: ADME, organism-based; settings: in vivo
# Candida albicans [35] = assay: Synergistic antifungal activity against Candida albicans SC5314 assessed as fractional inhibitory concentration index incubated for 48 hrs in presence of Fluconazole by broth microdilution method; format: functional
# Cryptococcus neoformans [36] = assay: Antifungal activity against Cryptococcus neoformans H99 assessed as reduction on fungal growth at 2 ug/ml incubated for 48 hrs by plate reader assay; format: functional; set-up: scale not given: the % may be the effect or the level left; settings: dose 2 µg/ml
# [37] = MRT (0 to t) in Sprague-Dawley rat at 2 mg/kg,iv by LC-MS/MS analysis; format: ADME, organism-based; settings: in vivo
smiles,measurement,setting,value
OC(Cn1cncn1)(Cn1cncn1)c1ccc(F)cc1F [FLUCONAZOLE],fractional inhibitory concentration index (FICI),Cryptococcus neoformans [1],0.313
same,fractional inhibitory concentration index (FICI),Candida tropicalis [2],0.516
same,MIC,[3],0.5 µg/mL
same,fractional inhibitory concentration index (FICI),Cryptococcus neoformans [4],0.375
same,fractional inhibitory concentration index (FICI),Cryptococcus gattii [5],0.25
same,fractional inhibitory concentration index (FICI),Nakaseomyces glabratus [6],0.625
same,MIC,Cryptococcus neoformans [7],1 µg/mL
same,fractional inhibitory concentration index (FICI),Cryptococcus neoformans [8],0.375
same,MIC,Candida albicans [9],1 µg/mL
same,fractional inhibitory concentration index (FICI),[Candida] auris,1.008
same,fractional inhibitory concentration index (FICI),[10],0.188
same,MIC,Cryptococcus neoformans [11],0.25 µg/mL
same,fractional inhibitory concentration index (FICI),Cryptococcus neoformans [12],0.125
same,fractional inhibitory concentration index (FICI),[13],0.25
same,MIC,Cryptococcus gattii [14],0.5 µg/mL
same,fractional inhibitory concentration index (FICI),Cryptococcus neoformans [15],0.188
same,survival at 10 mg/kg,Cryptococcus neoformans [16],65%
same,MIC,Nakaseomyces glabratus [17],4 µg/mL
same,MIC,Cryptococcus neoformans [18],0.125 µg/mL
CCCCNC(=O)c1c(O)c2sccc2n(Cc2ccccc2)c1=O,MIC,Cryptococcus neoformans [19],0.0313 µg/mL
same,MIC,Candida tropicalis [20],2 µg/mL
same,fractional inhibitory concentration index (FICI),Pichia kudriavzevii,0.563
same,MIC,Candida albicans [21],1 µg/mL
same,fractional inhibitory concentration index (FICI),Cryptococcus neoformans [22],0.313
same,fractional inhibitory concentration index (FICI),Candida tropicalis [23],0.516
same,survival at 10 mg/kg,Cryptococcus neoformans [24],65%
same,fractional inhibitory concentration index (FICI),Cryptococcus neoformans [25],0.156
same,fractional inhibitory concentration index (FICI),Cryptococcus neoformans [26],0.375
same,Vdss,[27],7.12 L/kg
same,IC50 at 24 h,[28],> 256 µg/mL
same,selectivity ratio,[29],> 256
same,MIC,Cryptococcus neoformans [30],0.0313 µg/mL
same,AUC,[31],749 ng·h/mL
same,MIC,Cryptococcus neoformans [32],0.0313 µg/mL
same,fractional inhibitory concentration index (FICI),Cryptococcus neoformans [33],0.188
same,half-life,[34],15.3 h
same,fractional inhibitory concentration index (FICI),Candida albicans [35],1.008
same,Activity,Cryptococcus neoformans [36],46.8%
same,MRT(t),[37],2.63 h
